Test results: patent US9113629B2, “4-amino-6-(4-substituted-phenyl)-picolinates and 6-amino-2-(4-substituted-phenyl)-pyrimidine-4-carboxylates and their use as herbicides” (DOW AGROSCIENCES LLC, priority 2013, dated 2015)
Read-outs that look alike come from different tables or passages of the source.

Tests used:
[1] = system: Key Broadleaf Weed and Crop Species; assay: Post-emergent Test II herbicidal activity (Table 5); assay type: in vivo; settings: post-emergence, 336 h, post-emergent, 14 days after application; for pest or weed control at 70 g/ha: 70 g ai/ha; for pest or weed control at 140 g/ha: 140 g ai/ha
Outline: (§1)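 Post-emergence foliar spray, 187 L/ha, track sprayer at 43 cm above canopy. Carrier: acetone/water/IPA/DMSO/Atplus 411F/Triton X-155. Plants at 1st–2nd true leaf; subirrigated afterwards; % injury scored visually at 14 d.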

[2] = system: Key Grass and Sedge Weeds as well as Grass Crops; assay: Post-emergent Test II herbicidal activity (Table 6); assay type: in vivo; settings: post-emergence, 336 h; for pest or weed control at 70 g/ha: application rate 70 g ai/ha; for pest or weed control at 140 g/ha: application rate 140 g ai/ha
Outline: as §1

[3] = ABUTH: velvetleaf (Abutilon theophrasti), read-out: Visual Growth Reduction (%) 14 Days After Application ABUTH
[4] = AMARE: redroot pigweed (Amaranthus retroflexus), read-out: Visual Growth Reduction (%) 14 Days After Application AMARE
[5] = BRSNN: oilseed-rape, canola (Brassica napus), read-out: Visual Growth Reduction (%) 14 Days After Application BRSNN
[6] = CHEAL: lambsquarters (Chenopodium album), read-out: Visual Growth Reduction (%) 14 Days After Application CHEAL
[7] = EPHHL: wild poinsettia (Euphorbia heterophylla), read-out: Visual Growth Reduction (%) 14 Days After Application EPHHL
[8] = HELAN: sunflower (Helianthus annuus), read-out: Visual Growth Reduction (%) 14 Days After Application HELAN
[9] = VIOTR: wild pansy (Viola tricolor), read-out: Visual Growth Reduction (%) 14 Days After Application VIOTR
[10] = CYPES: yellow nutsedge (Cyperus esculentus), read-out: Visual Growth Reduction (%) 14 Days After Application, CYPES
[11] = DIGSA: crabgrass (Digitaria sanguinalis), read-out: Visual Growth Reduction (%) 14 Days After Application, DIGSA
[12] = ECHCG: barnyardgrass (Echinochloa crus-galli), read-out: Visual Growth Reduction (%) 14 Days After Application, ECHCG
[13] = ORYSA: rice (Oryza sativa), read-out: Visual Growth Reduction (%) 14 Days After Application, ORYSA
[14] = SETFA: giant foxtail (Setaria faberi), read-out: Visual Growth Reduction (%) 14 Days After Application, SETFA
[15] = SORVU: grain sorghum (Sorghum vulgare), read-out: Visual Growth Reduction (%) 14 Days After Application, SORVU
[16] = TRZSS (wheat, Triticum aestivum), read-out: Visual Growth Reduction (%) 14 Days After Application, TRZSS
[17] = ZEAMX: maize, corn (Zea mays), read-out: Visual Growth Reduction (%) 14 Days After Application, ZEAMX
[18] = Triticum aestivum, TRZSS (wheat), read-out: Visual Growth Reduction (%) 14 Days After Application, TRZSS

Compound `Nc1cc(-c2c(F)cc(Br)c(F)c2F)nc(C(=O)O)c1Cl` [Compound 162, 4-amino-6-(4-bromo-2,3,6-trifluorophenyl)-3-chloropicolinic acid] has a pest or weed control at 70 g/ha [1, 3] of 85 to 94%, a pest or weed control at 140 g/ha [1, 3] of 85 to 94% and a pest or weed control at 70 g/ha [1, 4] of 95 to 100%. It also gave a pest or weed control at 140 g/ha [1, 4] of 95 to 100%, a pest or weed control at 70 g/ha [1, 5] of 95 to 100% and a pest or weed control at 140 g/ha [1, 5] of 95 to 100%. The pest or weed control at 70 g/ha [1, 6] was 95 to 100%, the pest or weed control at 140 g/ha [1, 6] was 95 to 100% and the pest or weed control at 70 g/ha [1, 7] was 95 to 100%. The pest or weed control at 140 g/ha [1, 7] was 95 to 100%, the pest or weed control at 70 g/ha [1, 8] was 85 to 94% and the pest or weed control at 140 g/ha [1, 8] was 85 to 94%. It also gave a pest or weed control at 70 g/ha [1, 9] of 95 to 100%, a pest or weed control at 140 g/ha [1, 9] of 95 to 100% and a pest or weed control at 70 g/ha [2, 10] of 95 to 100%. It also gave a pest or weed control at 140 g/ha [2, 10] of 45 to 59%, a pest or weed control at 70 g/ha [2, 11] of 75 to 84% and a pest or weed control at 140 g/ha [2, 11] of 75 to 84%. It also gave a pest or weed control at 70 g/ha [2, 12] of 85 to 94%, a pest or weed control at 140 g/ha [2, 12] of 75 to 84% and a pest or weed control at 70 g/ha [2, 13] of 45 to 59%. The pest or weed control at 140 g/ha [2, 13] was 45 to 59%, the pest or weed control at 70 g/ha [2, 14] was 85 to 94% and the pest or weed control at 140 g/ha [2, 14] was 75 to 84%. For the same compound, the pest or weed control at 70 g/ha [2, 15] was 85 to 94%, the pest or weed control at 140 g/ha [2, 15] was 95 to 100% and the pest or weed control at 70 g/ha [2, 16] was 45 to 59%. It also gave a pest or weed control at 140 g/ha [2, 16] of 45 to 59%, a pest or weed control at 70 g/ha [2, 17] of 60 to 74% and a pest or weed control at 140 g/ha [2, 17] of 75 to 84%.
With `C=Cc1c(N)nc(-c2ccc(C#N)cc2F)nc1C(=O)OC` [Compound 98, Methyl 6-amino-2-(4-cyano-2-fluorophenyl)-5-vinylpyrimidine-4-carboxylate] the pest or weed control at 70 g/ha [1, 3] was 0 to 29%, the pest or weed control at 140 g/ha [1, 3] was 0 to 29% and the pest or weed control at 70 g/ha [1, 4] was 0 to 29%. The pest or weed control at 140 g/ha [1, 4] was 0 to 29%, the pest or weed control at 70 g/ha [1, 5] was 0 to 29% and the pest or weed control at 140 g/ha [1, 5] was 0 to 29%. The pest or weed control at 70 g/ha [1, 6] was 0 to 29%, the pest or weed control at 140 g/ha [1, 6] was 0 to 29% and the pest or weed control at 70 g/ha [1, 7] was 0 to 29%. It also gave a pest or weed control at 140 g/ha [1, 7] of 0 to 29%, a pest or weed control at 70 g/ha [1, 8] of 0 to 29% and a pest or weed control at 140 g/ha [1, 8] of 0 to 29%. It also gave a pest or weed control at 70 g/ha [1, 9] of 0 to 29%, a pest or weed control at 140 g/ha [1, 9] of 0 to 29% and a pest or weed control at 70 g/ha [2, 18] of 0 to 29%. For the same compound, the pest or weed control at 70 g/ha [2, 10] was 0 to 29%, the pest or weed control at 140 g/ha [2, 10] was 0 to 29% and the pest or weed control at 70 g/ha [2, 11] was 0 to 29%. For the same compound, the pest or weed control at 140 g/ha [2, 11] was 0 to 29%, the pest or weed control at 70 g/ha [2, 12] was 0 to 29% and the pest or weed control at 140 g/ha [2, 12] was 0 to 29%. The pest or weed control at 70 g/ha [2, 13] was 0 to 29%, the pest or weed control at 140 g/ha [2, 13] was 0 to 29% and the pest or weed control at 70 g/ha [2, 14] was 0 to 29%. It also gave a pest or weed control at 140 g/ha [2, 14] of 0 to 29%, a pest or weed control at 70 g/ha [2, 15] of 0 to 29% and a pest or weed control at 140 g/ha [2, 15] of 0 to 29%. For the same compound, the pest or weed control at 140 g/ha [2, 16] was 0 to 29%, the pest or weed control at 70 g/ha [2, 17] was 0 to 29% and the pest or weed control at 140 g/ha [2, 17] was 0 to 29%.
For `COc1c(N)nc(-c2ccc(Br)c(F)c2)nc1C(=O)O` [Compound 113, 6-Amino-2-(4-bromo-3-fluorophenyl)-5-methoxypyrimidine-4-carboxylic acid], the pest or weed control at 70 g/ha [1, 3] was 85 to 94%, the pest or weed control at 140 g/ha [1, 3] was 85 to 94% and the pest or weed control at 70 g/ha [1, 4] was 95 to 100%. The pest or weed control at 140 g/ha [1, 4] was 95 to 100%, the pest or weed control at 70 g/ha [1, 5] was 95 to 100% and the pest or weed control at 140 g/ha [1, 5] was 95 to 100%. It also gave a pest or weed control at 70 g/ha [1, 6] of 95 to 100%, a pest or weed control at 140 g/ha [1, 6] of 95 to 100% and a pest or weed control at 70 g/ha [1, 7] of 95 to 100%. For the same compound, the pest or weed control at 140 g/ha [1, 7] was 95 to 100%, the pest or weed control at 70 g/ha [1, 8] was 95 to 100% and the pest or weed control at 140 g/ha [1, 8] was 95 to 100%. It also gave a pest or weed control at 70 g/ha [1, 9] of 95 to 100%, a pest or weed control at 140 g/ha [1, 9] of 95 to 100% and a pest or weed control at 70 g/ha [2, 18] of 60 to 74%. It also gave a pest or weed control at 140 g/ha [2, 18] of 75 to 84%, a pest or weed control at 70 g/ha [2, 10] of 95 to 100% and a pest or weed control at 140 g/ha [2, 10] of 95 to 100%. It also gave a pest or weed control at 70 g/ha [2, 11] of 75 to 84%, a pest or weed control at 140 g/ha [2, 11] of 75 to 84% and a pest or weed control at 70 g/ha [2, 12] of 85 to 94%. It also gave a pest or weed control at 140 g/ha [2, 12] of 85 to 94%, a pest or weed control at 70 g/ha [2, 13] of 30 to 44% and a pest or weed control at 140 g/ha [2, 13] of 60 to 74%. For the same compound, the pest or weed control at 70 g/ha [2, 14] was 75 to 84%, the pest or weed control at 140 g/ha [2, 14] was 75 to 84% and the pest or weed control at 70 g/ha [2, 15] was 85 to 94%. For the same compound, the pest or weed control at 140 g/ha [2, 15] was 85 to 94%, the pest or weed control at 70 g/ha [2, 17] was 85 to 94% and the pest or weed control at 140 g/ha [2, 17] was 85 to 94%.
